Test results taken from PubChem BioAssay AID200 (DTP/NCI, 2004).
Where “and” joins values, the source holds several entries; their conditions need not be identical. Equal entries are not always repeated. Toxic doses and inconclusive results are not listed. Rule for the calls: active = survival T/C of 150% or more; inactive = T/C below 125% in these data. Where a SMILES comes first, the peptide text is derived from it.

Tested on: B6C3F1 mice, B16 melanoma ip, median survival T/C
Experiment: NCI In Vivo Anticancer Drug Screen. Data for tumor model B16 Melanoma (intraperitoneal) in B6C3F1 mice
Conditions: endpoint: median survival time, schedule: Q01DX009 (ip), higher = longer survival
How it was run: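 Antitumor effect was judged in mice with transplanted tumors by dividing the treated group's survival measure by that of vehicle controls.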

[1] = dose: 12.5 mg/kg/injection, vehicle: saline with Tween-80
[2] = dose: 25.0 mg/kg/injection, vehicle: saline with Tween-80
[3] = dose: 400.0 mg/kg/injection, vehicle: saline with Tween-80
[4] = dose: 100.0 mg/kg/injection, vehicle: saline
[5] = dose: 200.0 mg/kg/injection, vehicle: saline
[6] = dose: 400.0 mg/kg/injection, vehicle: saline
[7] = dose: 6.25 mg/kg/injection, vehicle: saline with Tween-80
[8] = dose: 50.0 mg/kg/injection, vehicle: saline with Tween-80
[9] = dose: 100.0 mg/kg/injection, vehicle: saline with Tween-80
[10] = dose: 12.5 mg/kg/injection, vehicle: Klucel (hydroxypropylcellulose) (HPC)
[11] = dose: 25.0 mg/kg/injection, vehicle: Klucel (hydroxypropylcellulose) (HPC)
[12] = dose: 50.0 mg/kg/injection, vehicle: Klucel (hydroxypropylcellulose) (HPC)
[13] = dose: 100.0 mg/kg/injection, vehicle: Klucel (hydroxypropylcellulose) (HPC)
[14] = dose: 200.0 mg/kg/injection, vehicle: Klucel (hydroxypropylcellulose) (HPC)
[15] = dose: 200.0 mg/kg/injection, vehicle: saline with Tween-80

Measured: T/C

O=CC(O)C(O)C(O)C(O)CO (stereo unspecified)
inactive: dose: 75.0 mg/kg/injection, vehicle: saline 95 % of control | dose: 150.0 mg/kg/injection, vehicle: saline 102 % of control | dose: 300.0 mg/kg/injection, vehicle: saline 103 % of control | dose: 600.0 mg/kg/injection, vehicle: saline 87 % of control | dose: 1200.0 mg/kg/injection, vehicle: saline 96 % of control

NC(=S)N/N=C\c1ncccc1OCc1cccc(N)c1
inactive: dose: 12.5 mg/kg/injection, vehicle: distilled water + Tween-80 86 % of control | [1] 103 % of control | dose: 25.0 mg/kg/injection, vehicle: distilled water + Tween-80 100 % of control | [2] 109 % of control and 113 % of control and 106 % of control | dose: 50.0 mg/kg/injection, vehicle: distilled water + Tween-80 114 % of control | dose: 100.0 mg/kg/injection, vehicle: distilled water + Tween-80 108 % of control | dose: 200.0 mg/kg/injection, vehicle: distilled water + Tween-80 118 % of control | dose: 400.0 mg/kg/injection, vehicle: distilled water + Tween-80 99 % of control | [3] 113 % of control and 121 % of control

CN(C)CC(=O)c1ccc(O)c(O)c1
inactive: [4] 104 % of control | [5] 114 % of control and 102 % of control | [6] 122 % of control and 108 % of control

C[n+]1c(/C=N/NC(N)=S)ccc2ccccc21
inactive: [7] 92 % of control | [1] 87 % of control | [2] 92 % of control | [8] 94 % of control | [9] 92 % of control

NC(N)=O
inactive: dose: 50.0 mg/kg/injection, vehicle: saline 99 % of control | [4] 100 % of control | [5] 106 % of control | [6] 95 % of control

C[n+]1c(/C=C\C=C\N2CCCCC2)sc2ccccc21
inactive: dose: 0.12 mg/kg/injection, vehicle: Klucel (hydroxypropylcellulose) (HPC) 107 % of control | dose: 0.25 mg/kg/injection, vehicle: Klucel (hydroxypropylcellulose) (HPC) 95 % of control | dose: 0.5 mg/kg/injection, vehicle: Klucel (hydroxypropylcellulose) (HPC) 90 % of control | dose: 1.0 mg/kg/injection, vehicle: Klucel (hydroxypropylcellulose) (HPC) 95 % of control | dose: 2.0 mg/kg/injection, vehicle: Klucel (hydroxypropylcellulose) (HPC) 110 % of control

CC(O)C(NC(=O)OCC1c2ccccc2-c2ccccc21)C(=O)O (stereo unspecified)
inactive: [10] 94 % of control and 98 % of control | [11] 88 % of control and 96 % of control | [12] 100 % of control and 101 % of control | [13] 93 % of control and 98 % of control | [14] 90 % of control and 100 % of control

NCC(=O)NC(Cc1ccc(O)cc1)C(=O)O (stereo unspecified) (HELM PEPTIDE1{G.[O=C(O)C(Cc1ccc(O)cc1)N[*:1]]}$$$$V2.0)
inactive: [4] 110 % of control | [5] 123 % of control

O=C(NO)c1cc(O)c(O)c(O)c1
inactive: dose: 25.0 mg/kg/injection, vehicle: water 100 % of control | dose: 50.0 mg/kg/injection, vehicle: water 105 % of control | dose: 100.0 mg/kg/injection, vehicle: water 114 % of control | dose: 200.0 mg/kg/injection, vehicle: water 118 % of control

O=C(N/N=C/c1ccccc1O)c1cccc([N+](=O)[O-])c1
inactive: [9] 103 % of control | [15] 87 % of control | [3] 96 % of control

C1OC1C1CO1 (stereo unspecified)
inactive: dose: 1.25 mg/kg/injection, vehicle: saline 92 % of control and 104 % of control | dose: 2.5 mg/kg/injection, vehicle: saline 91 % of control and 101 % of control (2×) | dose: 5.0 mg/kg/injection, vehicle: saline 113 % of control and 103 % of control and 105 % of control | dose: 10.0 mg/kg/injection, vehicle: saline 117 % of control and 122 % of control | dose: 20.0 mg/kg/injection, vehicle: saline 118 % of control and 121 % of control
active: dose: 40.0 mg/kg/injection, vehicle: saline 161 % of control

O=C(NC(Cc1ccc(I)cc1)C(=O)O)c1ccc(Br)cc1 (stereo unspecified)
inactive: dose: 25.0 mg/kg/injection, vehicle: sodium bicarbonate 96 % of control | dose: 50.0 mg/kg/injection, vehicle: sodium bicarbonate 104 % of control | dose: 100.0 mg/kg/injection, vehicle: sodium bicarbonate 101 % of control | dose: 200.0 mg/kg/injection, vehicle: sodium bicarbonate 97 % of control

COc1ccc(S(=O)(=O)N=N/C=C2\C=CC=CN2O)cc1OC
inactive: dose: 3.0 mg/kg/injection, vehicle: saline with Tween-80 119 % of control | dose: 3.12 mg/kg/injection, vehicle: saline with Tween-80 111 % of control | dose: 6.0 mg/kg/injection, vehicle: saline with Tween-80 123 % of control | [7] 102 % of control | [1] 107 % of control | [2] 123 % of control | [8] 122 % of control

Clc1ccccc1C(Nc1cnccn1)Nc1cnccn1
inactive: [2] 95 % of control and 101 % of control | [8] 98 % of control and 107 % of control | [9] 118 % of control and 108 % of control | [15] 116 % of control

C=C1C(=O)OC2/C=C(\C)CC(O)/C=C(/CO)CC(OC(=O)/C(C)=C/C)C12 (stereo unspecified)
inactive: dose: 7.5 mg/kg/injection, vehicle: saline + alcohol 115 % of control | dose: 7.5 mg/kg/injection, vehicle: saline with Tween-80 102 % of control | dose: 15.0 mg/kg/injection, vehicle: saline + alcohol 123 % of control | dose: 15.0 mg/kg/injection, vehicle: saline with Tween-80 103 % of control | dose: 15.0 mg/kg/injection, vehicle: saline 98 % of control | dose: 30.0 mg/kg/injection, vehicle: saline with Tween-80 97 % of control | dose: 30.0 mg/kg/injection, vehicle: saline 116 % of control | dose: 60.0 mg/kg/injection, vehicle: saline with Tween-80 98 % of control | dose: 60.0 mg/kg/injection, vehicle: saline 120 % of control
active: dose: 60.0 mg/kg/injection, vehicle: saline + alcohol 155 % of control

O=c1[nH]c(=O)n(C2CC(O)C(CO)O2)cc1I (stereo unspecified)
inactive: [3] 111 % of control

CS(=O)(=O)CS(=O)(=O)OCCCl
inactive: [7] 114 % of control | [1] 116 % of control
active: [2] 169 % of control and 178 % of control | [8] 228 % of control and 270 % of control | [9] 331 % of control

O=C(C1CO1)C(Cl)(Cl)Cl (stereo unspecified)
inactive: dose: 12.0 mg/kg/injection, vehicle: saline 92 % of control | dose: 25.0 mg/kg/injection, vehicle: saline 106 % of control

C[C@]12CC[C@@H]3c4ccc(O)cc4CC[C@H]3[C@@H]1CC[C@@H]2O
inactive: dose: 6.25 mg/kg/injection, vehicle: Klucel (hydroxypropylcellulose) (HPC) 89 % of control | [10] 98 % of control | [11] 90 % of control | [12] 94 % of control | [13] 90 % of control | [14] 89 % of control

N#CCCSC(=S)C1CCCC1=N (stereo unspecified)
inactive: [1] 103 % of control | [2] 106 % of control | [8] 98 % of control | [9] 106 % of control | [15] 103 % of control | [3] 104 % of control
